Laboratory results as given in article PMC6412119 (2019).

Test system: c-MYC Pu22-G10>T10 (DNA, G4) TGAGGGTGGTTAGGGTGGGTAA
Assay: fluorescence light-up
Conditions: 100 mM KCl; 10 mM potassium phosphate pH 7.0; 0.5 μM each; weak response

## C(=NNc1nc(Nc2ccccc2)nc(Nc2ccccc2)n1)c1c2ccccc2cc2ccccc12
  binding: weak
